Experimental data reported in paper PMC10983001, “Development of Cytotoxic GW7604-Zeise’s Salt Conjugates as Multitarget Compounds with Selectivity for Estrogen Receptor- Positive Tumor Cells” (Journal of Medicinal Chemistry, 2024).

What was measured:
SKBr3 cells = assay: MTT assay of metabolic activity, SKBr3; format: cell-based, human; conditions: 72 h, MTT
Protocol: The GW7604-Alk-PtCl3 complexes (with exclusion of GW7604-Prop-PtCl3) were investigated for cytotoxic effects in SKBr3 (ER-negative, COX-2-positive, Figure 6), MCF-7 (ERα-positive, COX-negative, Figure 6), and noncancerous TSA-201 (human embryonal kidney) cells at concentrations of 10–30 μM using an established MTT (3-(4,5-dimethylthiazol-2-yl)-2,5-diphenyltetrazolium bromide) assay.[60],[69]
After incubation for 72 h, the amounts of surviving, metabolically active cells were quantified based on their ability to transform the water-soluble yellow dye MTT to a purple formazan, which can be analyzed by UV–vis spectroscopy.
The exponentially growing cells were seeded at a density of 1750 (MCF-7), 2000 (SKBr3), and 1250 (TSA-201) cells/well into clear flat-bottom 96-well plates in triplicate. Following 24 h of incubation at 37 °C in a humidified atmosphere (5% CO2/95% air), the compounds [freshly prepared stock solutions in DMF, diluted with DMEM to the desired concentration (final DMF concentration of 0.1% (v/v))] were added to reach the indicated concentrations. After another 72 h of incubation, the cellular metabolic activity was measured employing an MTT assay. By adding predissolved MTT reagent in PBS at a final concentration of 0.5 mg/mL, the metabolic activity can be determined via an enzymatic conversion to a purple formazan salt. After 3 h, the medium was aspirated, and 200 μL of DMSO was added to dissolve the formed formazan crystals. The absorbance was measured at 570 and 690 nm (turbidity assessment) using an EnSpire plate reader (PerkinElmer, Waltham, MA, USA). Solvent-treated cells without a compound served as the positive control. Metabolic activity was calculated by the following equation [drawing 1]

plasmid pSport1 = assay: DNA interference assay (gel electrophoresis); format: binding; conditions: 20 μM, 4 h, 37 °C
Protocol: Therefore, the general possibility of DNA interaction was examined by incubating the complex with the empty plasmid pSport1 at a concentration of 20 μM for 4 h at 37 °C. The gel electrophoretic separation[60] […] The ladder structure differs from both the untreated sample (Figure 9A) and the solvent control (Figure 9B) and is similar to that of Cisplatin (Figure 9C).
Two μL (conc. 0.5 μg/μL) of an empty pSport1 (4109 base pairs) plasmid was mixed with 2 μL of each test compound (200 μM in DMF) and diluted with 16 μL of nuclease-free water to reach a final concentration of 20 μM for GW7604-Pent-PtCl3 and […] for Cisplatin. Afterward, this mixture was incubated for 4 h at 37 °C under gentle shaking. Samples were loaded with gel loading buffer on agarose gel [0.5% (w/v) in 1 × TRIS-acetate-EDTA (TAE) buffer + 0.004% Midori Green Advance]. The following running parameters were used: 95 min at 3 V/cm in 1 × TAE buffer. Images were visualized under UV light (254 nm).

MCF-7 cells = assay: Comet assay; format: cell-based, human; conditions: MCF-7, 20 μM, 48 h
Protocol: The comet assay (Figure 10), however, documents different consequences of DNA binding. […] The picture (Figure 10C) is very similar to that of the solvent control (Figure 10A).
MCF-7 cells were seeded at a density of 1.0 × 10^6 cells into a 25 cm^2 flask, followed by 24 h of incubation in a humidified atmosphere (5% CO2/95% air) at 37 °C. […] Cells were incubated with the compounds for 48 h. The assay was performed according to the manufacturer’s protocol (Comet assay kit, Abcam, Cambridge, UK). Briefly, after lysis and application to the microscopy slides, electrophoresis was run in an alkaline buffer for 20 min at 2 V/cm. Subsequently, slides were washed with pure deionized water and EtOH/water [7/3 (v/v)], and stained with Vista Green DNA Dye. Visualization was carried out by real-time live confocal microscopy using an inverted microscope (Zeiss Observer Z1) in arrangement with a spinning disc confocal system (UltraVIEW VoX).

ERα in MCF-7 cells = assay: Western blot analysis of ER downregulation; format: cell-based, human; conditions: MCF-7, 20 μM, 24 h
Protocol: The exponentially growing cells were seeded at a density of 2.5 × 10^6 (MCF-7) and 3.0 × 10^6 (SKBr3) cells into 75 cm^2 flasks. The cells were incubated for 24 h in a humidified atmosphere (5% CO2/95% air) at 37 °C. For downregulation experiments, a stock solution of GW7604-Pent-PtCl3 in DMF was freshly prepared and diluted with DMEM containing 10% FCS to the desired concentration [final DMF concentration of 0.1% (v/v), final complex concentration of 20 μM]. The medium in the flasks was replaced with fresh cell culture medium containing the compound, and the flasks were incubated in a humidified atmosphere at 37 °C for 24 h. Afterward, cells were harvested (cell scratcher), and samples were lysed using a modified radio immunoprecipitation assay buffer [50 mM of TRIS (pH = 8.0), 150 mM NaCl, 0.5% NP-40, 50 mM NaF, 1 mM […], 1 mM phenylmethylsulfonyl fluoride, and protease inhibitors (EDTA-free; Roche, Basel, Switzerland)]. Total protein concentration was determined by employing the Bradford assay as described above, and samples were analyzed on the JESS ProteinSimple (Bio-Techne, Minneapolis, MN, USA) according to the manufacturer’s protocol. The following antibodies were used: GAPDH (no. 2118S, cell signaling), ERα (no. 8644S, cell signaling), and COX-2 (no. 12282, cell signaling). All primary antibodies were diluted with antibody diluents provided by ProteinSimple.

## CCC(=C(c1ccc(O)cc1)c1ccc(C=CC(=O)OCCC[CH]2[CH2][Pt-]2([Cl])([Cl])[Cl])cc1)c1ccccc1.[K+] (mixture of isomers) [GW7604-Pent-PtCl3, Potassium trichlorido[η^2-(pent-4-en-1-yl (E)-3-(4-((E/Z)-1-(4-hydroxyphenyl)-2-phenylbut-1-en-1-yl)phenyl)acrylate)]platinate(II)]
SKBr3 cells
  IC50: > 30 µM
Plasmid pSport1
  interaction with plasmid DNA: binds to DNA
MCF-7 cells
  comet tails (DNA cross-links): did not show this effect
ERα in MCF-7 cells
  ER downregulation (SERD effect): nor downregulated the ER content
